Assay results as given in article PMC5761851, “Application of a phenotypic drug discovery strategy to identify biological and chemical starting points for inhibition of TSLP production in lung epithelial cells” (PLoS ONE, 2018).

How the values were obtained:
Test in all cases: kinase selectivity panel
Format in all cases: biochemical
[1] = target: T1, PKCα (Homo sapiens, UniProt P17252); details: read-out: percentage of control activity (POC), PKCα
T1 construct: purchased Eurofins Pharma Discovery Services (KinaseProfiler; Cerep BioPrint panel)
Summary of the method: (§1)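 Tested at 10 μM in duplicate within a panel of 125 representative kinases. For selected activities, IC50 values were then determined from 9 concentrations, each run in duplicate.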

[2] = target: T2, Fyn (Homo sapiens, UniProt P06241); details: read-out: percentage of control activity (POC), Fyn
T2 construct: purchased Eurofins Pharma Discovery Services (KinaseProfiler; Cerep BioPrint panel)
T2 sequence (P06241 whole entry): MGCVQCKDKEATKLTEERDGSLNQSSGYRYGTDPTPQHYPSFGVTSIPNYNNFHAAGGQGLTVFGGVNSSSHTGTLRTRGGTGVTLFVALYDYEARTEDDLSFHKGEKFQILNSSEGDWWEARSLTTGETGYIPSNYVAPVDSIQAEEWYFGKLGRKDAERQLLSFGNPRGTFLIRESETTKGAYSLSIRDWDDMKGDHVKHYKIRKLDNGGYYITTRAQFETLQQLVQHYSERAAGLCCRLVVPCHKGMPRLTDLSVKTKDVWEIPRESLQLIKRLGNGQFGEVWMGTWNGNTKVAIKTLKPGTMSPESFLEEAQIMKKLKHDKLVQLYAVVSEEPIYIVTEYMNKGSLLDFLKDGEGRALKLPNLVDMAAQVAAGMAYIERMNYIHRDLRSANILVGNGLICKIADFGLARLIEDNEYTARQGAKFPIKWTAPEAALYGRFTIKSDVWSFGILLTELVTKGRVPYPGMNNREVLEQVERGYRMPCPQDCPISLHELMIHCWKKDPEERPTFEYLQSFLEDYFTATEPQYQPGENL
Summary of the method: as §1

[3] = target: T3, FAK (Homo sapiens, UniProt Q05397); details: read-out: percentage of control activity (POC), FAK
T3 construct: purchased Eurofins Pharma Discovery Services (KinaseProfiler; Cerep BioPrint panel)
T3 sequence (Q05397 whole entry): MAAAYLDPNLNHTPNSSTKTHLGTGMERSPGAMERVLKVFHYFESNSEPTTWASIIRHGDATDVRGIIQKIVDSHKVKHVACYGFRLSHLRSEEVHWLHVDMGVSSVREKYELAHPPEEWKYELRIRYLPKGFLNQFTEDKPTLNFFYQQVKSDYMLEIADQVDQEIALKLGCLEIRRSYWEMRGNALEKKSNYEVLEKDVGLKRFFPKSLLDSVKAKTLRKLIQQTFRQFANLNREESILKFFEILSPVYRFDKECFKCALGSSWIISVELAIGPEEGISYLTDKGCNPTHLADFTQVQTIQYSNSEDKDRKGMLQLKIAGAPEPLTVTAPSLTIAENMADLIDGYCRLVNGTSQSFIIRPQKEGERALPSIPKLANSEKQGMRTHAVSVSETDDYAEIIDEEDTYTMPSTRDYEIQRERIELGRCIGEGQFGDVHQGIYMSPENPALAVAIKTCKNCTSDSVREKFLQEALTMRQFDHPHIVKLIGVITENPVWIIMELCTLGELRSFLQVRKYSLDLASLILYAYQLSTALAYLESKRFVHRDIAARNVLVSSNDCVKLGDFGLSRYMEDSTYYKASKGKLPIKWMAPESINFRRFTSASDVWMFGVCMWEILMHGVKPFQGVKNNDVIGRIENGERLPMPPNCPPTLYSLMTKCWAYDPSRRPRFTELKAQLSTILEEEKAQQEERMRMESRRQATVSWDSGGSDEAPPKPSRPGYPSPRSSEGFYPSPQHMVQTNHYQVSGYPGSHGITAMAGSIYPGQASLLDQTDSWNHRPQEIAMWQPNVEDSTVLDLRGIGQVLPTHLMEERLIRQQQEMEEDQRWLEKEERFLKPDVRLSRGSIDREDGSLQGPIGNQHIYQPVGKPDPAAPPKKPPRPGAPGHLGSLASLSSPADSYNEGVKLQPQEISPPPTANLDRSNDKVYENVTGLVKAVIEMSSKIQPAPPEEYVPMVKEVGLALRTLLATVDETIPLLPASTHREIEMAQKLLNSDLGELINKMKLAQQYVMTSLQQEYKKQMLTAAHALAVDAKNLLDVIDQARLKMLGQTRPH
Summary of the method: as §1

[4] = target: T4, ZAP-70 (Homo sapiens, UniProt P43403); details: read-out: percentage of control activity (POC), ZAP-70
T4 construct: purchased Eurofins Pharma Discovery Services (KinaseProfiler; Cerep BioPrint panel)
T4 sequence (P43403 1-619): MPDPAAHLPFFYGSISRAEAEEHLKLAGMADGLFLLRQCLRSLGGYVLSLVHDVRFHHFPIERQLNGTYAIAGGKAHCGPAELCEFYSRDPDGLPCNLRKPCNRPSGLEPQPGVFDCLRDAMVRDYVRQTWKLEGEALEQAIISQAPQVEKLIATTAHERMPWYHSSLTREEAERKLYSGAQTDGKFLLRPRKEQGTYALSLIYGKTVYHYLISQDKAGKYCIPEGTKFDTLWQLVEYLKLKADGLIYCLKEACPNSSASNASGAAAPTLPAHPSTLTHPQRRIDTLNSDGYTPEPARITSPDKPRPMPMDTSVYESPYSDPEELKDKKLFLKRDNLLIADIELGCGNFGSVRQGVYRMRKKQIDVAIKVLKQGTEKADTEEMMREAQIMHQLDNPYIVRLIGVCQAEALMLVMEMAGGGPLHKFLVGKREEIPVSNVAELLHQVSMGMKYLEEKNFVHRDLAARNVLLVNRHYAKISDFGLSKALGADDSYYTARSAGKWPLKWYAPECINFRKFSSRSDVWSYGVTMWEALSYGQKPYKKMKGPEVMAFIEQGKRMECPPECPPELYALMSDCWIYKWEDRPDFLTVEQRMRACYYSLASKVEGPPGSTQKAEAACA
Summary of the method: as §1

[5] = target: T5, PDGFRβ (Homo sapiens, UniProt P09619); details: read-out: percentage of control activity (POC), PDGFRβ
T5 construct: purchased Eurofins Pharma Discovery Services (KinaseProfiler; Cerep BioPrint panel)
Summary of the method: as §1

[6] = target: T6, AMPKα1 (Homo sapiens, UniProt Q13131); details: read-out: percentage of control activity (POC), AMPKα1
T6 construct: purchased Eurofins Pharma Discovery Services (KinaseProfiler; Cerep BioPrint panel)
T6 sequence (Q13131 whole entry): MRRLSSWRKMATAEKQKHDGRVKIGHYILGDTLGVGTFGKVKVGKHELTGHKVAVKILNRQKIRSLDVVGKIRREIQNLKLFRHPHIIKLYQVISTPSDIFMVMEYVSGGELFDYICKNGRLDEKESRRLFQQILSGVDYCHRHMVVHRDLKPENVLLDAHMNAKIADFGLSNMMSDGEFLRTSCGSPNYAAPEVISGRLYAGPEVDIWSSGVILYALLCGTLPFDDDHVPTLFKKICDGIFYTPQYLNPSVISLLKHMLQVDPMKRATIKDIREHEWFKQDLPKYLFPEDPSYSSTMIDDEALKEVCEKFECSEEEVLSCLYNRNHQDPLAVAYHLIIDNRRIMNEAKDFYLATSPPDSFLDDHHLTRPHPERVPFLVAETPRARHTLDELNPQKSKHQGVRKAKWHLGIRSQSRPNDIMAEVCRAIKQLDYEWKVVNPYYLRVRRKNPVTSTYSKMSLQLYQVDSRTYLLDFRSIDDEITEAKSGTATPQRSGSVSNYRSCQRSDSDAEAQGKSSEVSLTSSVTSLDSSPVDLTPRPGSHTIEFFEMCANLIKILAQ
T6 sequence (Q9Y478 whole entry partner): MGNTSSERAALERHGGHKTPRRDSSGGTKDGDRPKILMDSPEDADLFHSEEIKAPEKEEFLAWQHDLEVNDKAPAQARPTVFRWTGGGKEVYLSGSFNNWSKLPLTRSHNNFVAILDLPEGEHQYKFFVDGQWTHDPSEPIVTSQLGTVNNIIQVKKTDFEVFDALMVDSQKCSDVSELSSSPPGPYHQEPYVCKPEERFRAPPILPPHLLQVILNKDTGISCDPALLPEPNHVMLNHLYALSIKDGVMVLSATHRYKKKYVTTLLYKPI
T6 sequence (P54619 whole entry partner): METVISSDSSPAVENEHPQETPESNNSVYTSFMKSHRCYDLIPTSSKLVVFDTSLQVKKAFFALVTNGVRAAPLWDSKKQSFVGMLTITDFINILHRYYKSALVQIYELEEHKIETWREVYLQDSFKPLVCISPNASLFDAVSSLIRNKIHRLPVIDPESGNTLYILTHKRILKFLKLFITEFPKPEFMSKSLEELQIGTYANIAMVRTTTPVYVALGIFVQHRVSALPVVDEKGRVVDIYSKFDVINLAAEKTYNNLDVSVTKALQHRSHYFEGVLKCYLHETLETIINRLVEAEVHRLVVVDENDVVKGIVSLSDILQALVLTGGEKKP
Summary of the method: as §1

[7] = target: T7, PDK1 (Homo sapiens, UniProt O15530); details: read-out: percentage of control activity (POC), PDK1
T7 construct: purchased Eurofins Pharma Discovery Services (KinaseProfiler; Cerep BioPrint panel)
T7 sequence (O15530 1-556): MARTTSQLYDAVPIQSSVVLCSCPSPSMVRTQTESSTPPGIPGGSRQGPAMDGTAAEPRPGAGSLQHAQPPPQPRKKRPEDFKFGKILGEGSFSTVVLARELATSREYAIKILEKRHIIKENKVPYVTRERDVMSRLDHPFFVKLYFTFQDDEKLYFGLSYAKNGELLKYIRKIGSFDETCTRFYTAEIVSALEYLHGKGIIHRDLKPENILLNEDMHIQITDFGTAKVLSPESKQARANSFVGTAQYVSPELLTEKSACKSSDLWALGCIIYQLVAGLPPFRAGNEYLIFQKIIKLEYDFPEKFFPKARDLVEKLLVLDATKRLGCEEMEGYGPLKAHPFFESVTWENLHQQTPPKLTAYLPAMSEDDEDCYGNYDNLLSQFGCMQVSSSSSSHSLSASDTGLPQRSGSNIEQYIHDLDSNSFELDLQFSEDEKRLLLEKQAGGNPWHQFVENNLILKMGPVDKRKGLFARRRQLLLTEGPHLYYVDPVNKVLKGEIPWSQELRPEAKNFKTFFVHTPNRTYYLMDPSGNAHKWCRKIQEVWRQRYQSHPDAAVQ
Summary of the method: as §1

[8] = target: T8, NLK (Homo sapiens, UniProt Q9UBE8); details: read-out: percentage of control activity (POC), NLK
T8 construct: purchased Eurofins Pharma Discovery Services (KinaseProfiler; Cerep BioPrint panel)
T8 sequence (Q9UBE8 1-527): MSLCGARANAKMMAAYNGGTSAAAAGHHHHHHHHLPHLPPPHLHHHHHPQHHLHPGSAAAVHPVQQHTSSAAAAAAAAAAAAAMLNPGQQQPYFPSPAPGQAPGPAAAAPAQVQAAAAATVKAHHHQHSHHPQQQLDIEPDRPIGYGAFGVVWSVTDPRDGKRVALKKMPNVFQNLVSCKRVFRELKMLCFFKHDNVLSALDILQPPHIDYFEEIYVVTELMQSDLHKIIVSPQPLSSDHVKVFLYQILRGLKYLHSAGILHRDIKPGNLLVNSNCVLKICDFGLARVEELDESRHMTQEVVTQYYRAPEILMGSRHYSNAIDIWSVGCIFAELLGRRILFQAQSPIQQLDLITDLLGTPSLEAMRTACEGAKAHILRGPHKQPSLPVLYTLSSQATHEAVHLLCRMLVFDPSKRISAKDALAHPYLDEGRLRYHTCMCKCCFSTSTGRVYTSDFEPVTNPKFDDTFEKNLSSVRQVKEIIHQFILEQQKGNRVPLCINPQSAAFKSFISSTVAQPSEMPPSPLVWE
Summary of the method: as §1

[9] = target: T9, BTK (Homo sapiens, UniProt Q06187); details: read-out: percentage of control activity (POC), BTK
T9 construct: purchased Eurofins Pharma Discovery Services (KinaseProfiler; Cerep BioPrint panel)
T9 sequence (Q06187 whole entry): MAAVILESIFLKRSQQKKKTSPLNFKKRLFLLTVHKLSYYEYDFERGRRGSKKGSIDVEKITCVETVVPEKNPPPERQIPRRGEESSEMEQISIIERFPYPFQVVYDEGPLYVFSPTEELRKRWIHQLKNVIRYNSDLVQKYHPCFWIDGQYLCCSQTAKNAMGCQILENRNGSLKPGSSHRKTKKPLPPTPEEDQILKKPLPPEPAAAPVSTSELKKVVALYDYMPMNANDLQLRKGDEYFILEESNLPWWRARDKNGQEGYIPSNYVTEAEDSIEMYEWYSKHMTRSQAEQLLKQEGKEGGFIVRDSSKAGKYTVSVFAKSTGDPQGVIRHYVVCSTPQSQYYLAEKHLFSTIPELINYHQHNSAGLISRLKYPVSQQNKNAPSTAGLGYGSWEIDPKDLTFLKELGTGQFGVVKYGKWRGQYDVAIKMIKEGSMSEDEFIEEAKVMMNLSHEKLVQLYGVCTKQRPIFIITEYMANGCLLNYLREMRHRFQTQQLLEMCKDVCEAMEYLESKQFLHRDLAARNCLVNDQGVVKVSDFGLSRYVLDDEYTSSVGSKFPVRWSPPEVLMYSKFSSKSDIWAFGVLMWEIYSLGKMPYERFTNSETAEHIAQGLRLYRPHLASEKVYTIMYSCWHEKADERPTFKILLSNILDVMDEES
Summary of the method: as §1

[10] = target: T10, MINK (Homo sapiens, UniProt Q8N4C8); details: read-out: percentage of control activity (POC), MINK
T10 construct: purchased Eurofins Pharma Discovery Services (KinaseProfiler; Cerep BioPrint panel)
Summary of the method: as §1

[11] = target: T11, JAK1 (Homo sapiens, UniProt P23458); details: read-out: percentage of control activity (POC), JAK1
T11 construct: purchased Eurofins Pharma Discovery Services (KinaseProfiler; Cerep BioPrint panel)
Summary of the method: as §1

CC(C)(C)N1CCC(c2cc(-c3ccc(F)cc3Cl)c3cc[n+]([O-])c(-c4c(Cl)cccc4Cl)c3n2)CC1 [compound 2]
remaining activity at 10 µM [1]: 106% | remaining activity at 10 µM [2]: 100% | remaining activity at 10 µM [3]: 111% | remaining activity at 10 µM [4]: 105% | remaining activity at 10 µM [5]: 70% | remaining activity at 10 µM [6]: 105% | remaining activity at 10 µM [7]: 121% | remaining activity at 10 µM [8]: 86% | remaining activity at 10 µM [9]: 114% | remaining activity at 10 µM [10]: 104% | remaining activity at 10 µM [11]: 91%

Cc1ccc(C(=O)NCC2CC2)cc1-c1ccc2c(c1)NC(=O)C21CCCC1 [compound 3]
remaining activity at 10 µM [1]: 95% | remaining activity at 10 µM [2]: 97% | remaining activity at 10 µM [3]: 99% | remaining activity at 10 µM [4]: 97% | remaining activity at 10 µM [5]: 61% | remaining activity at 10 µM [6]: 98% | remaining activity at 10 µM [7]: 98% | remaining activity at 10 µM [8]: 99% | remaining activity at 10 µM [9]: 98% | remaining activity at 10 µM [10]: 93% | remaining activity at 10 µM [11]: 93%

Cn1cc(-c2cccc(-c3nc(C(=O)NC4C5CC6CC4CC(O)(C6)C5)c(N)nc3N)c2)cn1 (stereo not shown) [compound 4]
remaining activity at 10 µM [1]: 85% | remaining activity at 10 µM [2]: 81% | remaining activity at 10 µM [3]: 99% | remaining activity at 10 µM [4]: 104% | remaining activity at 10 µM [5]: 63% | remaining activity at 10 µM [6]: 85% | remaining activity at 10 µM [7]: 118% | remaining activity at 10 µM [8]: 85% | remaining activity at 10 µM [9]: 89% | remaining activity at 10 µM [10]: 94% | remaining activity at 10 µM [11]: 86%

CS(=O)(=O)N1CCN(c2ccc(Nc3ncc(C(N)=O)c(NC4CC4)n3)cc2)CC1 [compound 5]
remaining activity at 10 µM [1]: 38% | remaining activity at 10 µM [2]: 10% | remaining activity at 10 µM [3]: 1% | remaining activity at 10 µM [4]: 53% | remaining activity at 10 µM [5]: 16% | remaining activity at 10 µM [6]: -1% | remaining activity at 10 µM [7]: 7% | remaining activity at 10 µM [8]: 83% | remaining activity at 10 µM [9]: 17% | remaining activity at 10 µM [10]: 14% | remaining activity at 10 µM [11]: -2%

COc1c(NC(=O)c2ccc(C)c(-c3nnc4c(NCC(C)(C)C)nccn34)c2)cc(C(C)(C)C)cc1NS(C)(=O)=O [compound 7, reference compound]
remaining activity at 10 µM [1]: 102% | remaining activity at 10 µM [2]: 99% | remaining activity at 10 µM [3]: 104% | remaining activity at 10 µM [4]: 104% | remaining activity at 10 µM [5]: 82% | remaining activity at 10 µM [6]: 114% | remaining activity at 10 µM [7]: 121% | remaining activity at 10 µM [8]: 94% | remaining activity at 10 µM [9]: 112% | remaining activity at 10 µM [10]: 110% | remaining activity at 10 µM [11]: 101%
